Test: Organ distribution (including tumor and lymph node concentration) after intravenous administration in prostate-cancer-carrying rats
Format: in vivo
Details: 225 μmol total Gd/kg i.v.
Excerpt: Organ Distribution (Including Tumor and Lymph Node Concentration) After Intravenous Administration of the Contrast Medium According to the Invention of Example 1 in Prostate-cancer-carrying Rats
After intravenous administration of 225 μmol of total gadolinium/kg of body weight of the title compound of Example 1 in rats (Cop-inbreeding Dunning R3327 MAT-Lu prostate cancer i.m.-implanted 12 days earlier), the metal content in various organs, in tumors and in lymph nodes (pooled as mesenteral and peripheral lymph nodes) was determined 10 minutes, 1 and 24 hours after administration (MW±SD, n=3).

[1] = Muscle (only tissue sample from right lower leg muscle), 10 min p.i.
[2] = Muscle (only tissue sample from right lower leg muscle), 1 h p.i.
[3] = Muscle (only tissue sample from right lower leg muscle), 24 h p.i.
[4] = Remainder of body (also contains the remainder of the blood), 24 h p.i.
[5] = mes. LK (pooled mesenteral lymph nodes), 10 min p.i.
[6] = mes. LK (pooled mesenteral lymph nodes), 1 h p.i.
[7] = mes. LK (pooled mesenteral lymph nodes), 24 h p.i.
[8] = periph. LK (pooled peripheral lymph nodes), 10 min p.i.
[9] = periph. LK (pooled peripheral lymph nodes), 1 h p.i.
[10] = periph. LK (pooled peripheral lymph nodes), 24 h p.i.

## CC(C(=O)NCC(=O)NCCCC[C@H](NC(=O)CO[C@H]1O[C@H](CO)[C@@H](O)[C@H](O)[C@@H]1O)C(=O)N1CCN(S(=O)(=O)C(F)(F)C(F)(F)C(F)(F)C(F)(F)C(F)(F)C(F)(F)C(F)(F)C(F)(F)F)CC1)N1CCN(CC(=O)[O-])CCN(CC(=O)[O-])CCN(CC(=O)[O-])CC1.[Gd+3] (stereo partly drawn) [Example 1]
Lung, 10 min p.i.
  Gd-Concentration: 837 ± 32 µmol/L
Lung, 1 h p.i.
  % Dose per Total Tissue: 1.38 ± 0.08 % Dose
  Gd-Concentration: 658 ± 29 µmol/L
Lung, 24 h p.i.
  % Dose per Total Tissue: 0.73 ± 0.04 % Dose
  Gd-Concentration: 370 ± 34 µmol/L
[1]
  % Dose per Total Tissue: 10.11 ± 0.03 % Dose
  Gd-Concentration: 99 ± 5 µmol/L
[2]
  % Dose per Total Tissue: 0.09 ± 0.03 % Dose
  Gd-Concentration: 78 ± 1 µmol/L
[3]
  % Dose per Total Tissue: 0.04 ± 0.00 % Dose
  Gd-Concentration: 36 ± 1 µmol/L
Pancreas, 10 min p.i.
  % Dose per Total Tissue: 0.26 ± 0.05 % Dose
  Gd-Concentration: 229 ± 27 µmol/L
Pancreas, 1 h p.i.
  % Dose per Total Tissue: 0.21 ± 0.05 % Dose
  Gd-Concentration: 199 ± 30 µmol/L
Pancreas, 24 h p.i.
  % Dose per Total Tissue: 0.17 ± 0.02 % Dose
  Gd-Concentration: 130 ± 13 µmol/L
[4]
  % Dose per Total Tissue: 30.83 ± 4.05 % Dose
  Gd-Concentration: 225 ± 31 µmol/L
Spleen, 10 min p.i.
  % Dose per Total Tissue: 0.39 ± 0.03 % Dose
  Gd-Concentration: 548 ± 22 µmol/L
Spleen, 1 h p.i.
  % Dose per Total Tissue: 0.39 ± 0.02 % Dose
  Gd-Concentration: 487 ± 25 µmol/L
Spleen, 24 h p.i.
  % Dose per Total Tissue: 0.57 ± 0.03 % Dose
  Gd-Concentration: 645 ± 27 µmol/L
Stomach (emptied), 10 min p.i.
  % Dose per Total Tissue: 0.57 ± 0.04 % Dose
  Gd-Concentration: 231 ± 10 µmol/L
Stomach (emptied), 1 h p.i.
  % Dose per Total Tissue: 0.54 ± 0.12 % Dose
  Gd-Concentration: 219 ± 46 µmol/L
Stomach (emptied), 24 h p.i.
  % Dose per Total Tissue: 0.37 ± 0.06 % Dose
  Gd-Concentration: 138 ± 9 µmol/L
Sum of Organs (less the remainder of the body), 10 min p.i.
  % Dose per Total Tissue, Sum of Organs: 60.47 ± 3.68 % Dose
Sum of Organs (less the remainder of the body), 1 h p.i.
  % Dose per Total Tissue, Sum of Organs: 36.33 ± 2.51 % Dose
Sum of Organs, 24 h p.i.
  % Dose per Total Tissue, Sum of Organs: 52.01 ± 5.22 % Dose
Tumor, 10 min p.i.
  % Dose per Total Tissue: 0.28 ± 0.10 % Dose
  Gd-Concentration: 185 ± 36 µmol/L
Tumor, 1 h p.i.
  % Dose per Total Tissue: 0.21 ± 0.02 % Dose
  Gd-Concentration: 184 ± 13 µmol/L
Tumor, 24 h p.i.
  % Dose per Total Tissue: 0.31 ± 0.01 % Dose
  Gd-Concentration: 199 ± 19 µmol/L
Urine 0-24 h
  % Dose per Total Tissue: 20.20 ± 4.41 % Dose
  Gd-Concentration: 94 ± 20 µmol/L
[5]
  % Dose per Total Tissue: 0.11 ± 0.04 % Dose
  Gd-Concentration: 359 ± 72 µmol/L
[6]
  % Dose per Total Tissue: 0.24 ± 0.02 % Dose
  Gd-Concentration: 697 ± 42 µmol/L
[7]
  % Dose per Total Tissue: 0.32 ± 0.04 % Dose
  Gd-Concentration: 854 ± 135 µmol/L
[8]
  % Dose per Total Tissue: 0.10 ± 0.01 % Dose
  Gd-Concentration: 229 ± 15 µmol/L
[9]
  % Dose per Total Tissue: 0.20 ± 0.03 % Dose
  Gd-Concentration: 436 ± 44 µmol/L
[10]
  % Dose per Total Tissue: 0.18 ± 0.01 % Dose
  Gd-Concentration: 373 ± 24 µmol/L

Reference: US6641797B2, “Perfluoroalkyl-containing complexes with sugar radicals, process for their production and their use” (Schering Aktiengesellschaft, priority 2000, dated 2003)
